Data: patent publication US20230125429A1 (priority 2017, published 2023)
Several values for one entry are separate records, joined by “and”; a condition that tells them apart may be missing. Equal entries are not always repeated.

Legend:
[1] = test system: 51 human cancer cell lines; test: Growth inhibitory effect, one hour exposure, whole panel; type: cell-based; details: mean over the 51 cancer cell lines
Procedure: (§1) Cancer cell lines and immortalized human cell lines were cultured in 1640 tissue culture medium (Corning, USA) with 10% fetal bovine serum in a standard tissue culture condition of 37° C. and 5% CO2.
For primary hepatocytes, the seeded cells were monitored for up to 48 hours either without any treatment (as a control) or with various types of treatments. For primary keratinocytes, cells in 48-well plates were monitored either without any treatment or with various types of treatment for up to 96 hours. For HepG2, cells 96-well plates were monitored either without any treatment or with various types of treatments for up to 48 hours. […]
(§2) To address this possibility, we investigated whether other cell lines, including other HCC cell lines, cell lines from other type of cancers, as well as non-cancer immortalized/transformed cell lines, were also sensitive to Triptonide. Specifically, a total of 51 human cancer cell lines, representing 10 types of human cancers (6 non-small cell lung cancer cell lines, 5 colon cancer cell lines, 5 central nerve system cancer cell lines, 8 Melanomas cell lines, 4 ovarian cancer cell lines, 4 renal cancer cell lines, 2 prostate cancer cell lines, 3 breast cancer cell lines, 7 hepatocellular carcinoma cell lines, and 4 gastric cancer cell lines) were analyzed.

LO2 = test: Growth inhibitory effect, one hour exposure (IncuCyte Zoom); type: cell-based, human; details: LO2, immortalized hepatocytes
HCT-116 = test: as above; type: cell-based, human; details: HCT-116, Colon
Procedure: as §1
(§3) For primary hepatocytes, the seeded cells were monitored for up to 48 hours either without any treatment (as a control) or with various types of treatments. For primary keratinocytes, cells in 48-well plates were monitored either without any treatment or with various types of treatment for up to 96 hours. For HepG2, cells 96-well plates were monitored either without any treatment or with various types of treatments for up to 48 hours. The IncuCyte Zoom was set to take a set of images at fixed locations (4 per well for 96-well plates and 16 per well for 48-well plates and 12-well plates) every three hours.
(§4) The one-hour exposure is intended to simulate the transient high concentrations within the liver as the results of either the first pass effects of some orally administered drugs, or of locally delivered drugs, anticipating that such a short term exposure is nevertheless sufficient to affect certain cell surface receptors without causing any significant off-target effects due to intracellular absorption. Such a strategy would also reduce false hits due to reversible cell cycle arrests.
as §2

OVCAR-4 = test: as above; type: cell-based, human; details: OVCAR-4, Ovarian
Procedure: as §1, §3, §4, §2

SNU-449 = test: as above; type: cell-based, human; details: SNU-449, Hepatocellular carcinoma
Procedure: as §1, §3, §4, §2

Huh7 = test: as above; type: cell-based, human; details: Huh7, Hepatocelular carcinoma
Procedure: as §1, §3, §4, §2

SW-620 = test: as above; type: cell-based, human; details: SW-620, Colon
Procedure: as §1, §3, §4, §2

DU-145 = test: as above; type: cell-based, human; details: DU-145, Prostate
Procedure: as §1, §3, §4, §2

NCI-H226 = test: as above; type: cell-based, human; details: NCI-H226, Non-Small Cell Lung
Procedure: as §1, §3, §4, §2

SGC7901 = test: as above; type: cell-based, human; details: SGC7901, Gastric cancer
Procedure: as §1, §3, §4, §2

CAKI-1 = test: as above; type: cell-based, human; details: CAKI-1, Renal
Procedure: as §1, §3, §4, §2

LM9 = test: as above; type: cell-based, human; details: LM9, Hepatocellular carcinoma
Procedure: as §1, §3, §4, §2

PC-3 = test: as above; type: cell-based, human; details: PC-3, Prostate
Procedure: as §1, §3, §4, §2

NCI-H522 = test: as above; type: cell-based, human; details: NCI-H522, Non-Small Cell Lung
Procedure: as §1, §3, §4, §2

OVCAR-3 = test: as above; type: cell-based, human; details: OVCAR-3, Ovarian
Procedure: as §1, §3, §4, §2

HOP-62 = test: as above; type: cell-based, human; details: HOP-62, Non-Small Cell Lung
Procedure: as §1, §3, §4, §2

LOX IMV1 = test: as above; type: cell-based, human; details: LOX IMV1, Melanoma
Procedure: as §1, §3, §4, §2

OVCAR-5 = test: as above; type: cell-based, human; details: OVCAR-5, Ovarian
Procedure: as §1, §3, §4, §2

SF-295 = test: as above; type: cell-based, human; details: SF-295, CNS
Procedure: as §1, §3, §4, §2

T-47D = test: as above; type: cell-based, human; details: Breast
Procedure: as §1, §3, §4, §2

AGS = test: as above; type: cell-based, human; details: Gastric cancer
Procedure: as §1, §3, §4, §2

MALME-3M = test: as above; type: cell-based, human; details: Melanoma
Procedure: as §1, §3, §4, §2

HCT-15 = test: as above; type: cell-based, human; details: HCT-15, Colon
Procedure: as §1, §3, §4, §2

IGR-OV1 = test: as above; type: cell-based, human; details: IGR-OV1, Ovarian
Procedure: as §1, §3, §4, §2

SK-MEL-28 = test: as above; type: cell-based, human; details: SK-MEL-28, Melanoma
Procedure: as §1, §3, §4, §2

OVCAR-8 = test: as above; type: cell-based, human; details: OVCAR-8, Ovarian
Procedure: as §1, §3, §4, §2

SK-MEL-2 = test: as above; type: cell-based, human; details: SK-MEL-2, Melanoma
Procedure: as §1, §3, §4, §2

U251 = test: as above; type: cell-based, human; details: U251, CNS
Procedure: as §1, §3, §4, §2

SF-268 = test: as above; type: cell-based, human; details: SF-268, CNS
Procedure: as §1, §3, §4, §2

UACC-257 = test: as above; type: cell-based, human; details: UACC-257, Melanoma
Procedure: as §1, §3, §4, §2

SF-539 = test: as above; type: cell-based, human; details: SF-539, CNS
Procedure: as §1, §3, §4, §2

SNU-387 = test: as above; type: cell-based, human; details: SNU-387, Hepatocellular carcinoma
Procedure: as §1, §3, §4, §2

M14 = test: as above; type: cell-based, human; details: M14, Melanoma
Procedure: as §1, §3, §4, §2

SMILES: CC(C)[C@]12O[C@H]1[C@@H]1O[C@@]13[C@@]1(C)CCC4=C(COC4=O)[C@@H]1C[C@@H]1O[C@@]13C2=O [Triptonide]
- IC50 [1]: 7.31 µM and 7.66 µM
- effect of continuous exposure on PMHs (PMHs): complete death
- toxic effect on PMHs (PMHs): no significant toxic effect
- IC50 (LO2): 0.642 µM
- IC50 (HCT-116): 2.57 µM
- IC50 (OVCAR-4): 1.54 µM
- IC50 (SNU-449): 4.92 µM
- IC50 (Huh7): 1.75 µM
- IC50 (SW-620): 11.6 µM
- IC50 (DU-145): 2.38 µM
- IC50 (NCI-H226): 11.2 µM
- IC50 (SGC7901): 12 µM
- IC50 (CAKI-1): 6.15 µM
- IC50 (LM9): 4.24 µM
- IC50 (PC-3): 6.71 µM
- IC50 (NCI-H522): 23.1 µM
- IC50 (OVCAR-3): 4.9 µM
- IC50 (HOP-62): 9.23 µM
- IC50 (LOX IMV1): 1.77 µM
- IC50 (OVCAR-5): 8.23 µM
- IC50 (SF-295): 14.6 µM
- IC50 (T-47D): 1.81 µM
- IC50 (AGS): 4.07 µM
- IC50 (MALME-3M): 3.44 µM
- IC50 (HCT-15): 1.18 µM
- IC50 (IGR-OV1): 4.66 µM
- IC50 (SK-MEL-28): 17.8 µM
- IC50 (OVCAR-8): 7.29 µM
- IC50 (SK-MEL-2): 0.608 µM
- IC50 (U251): 43.2 µM
- IC50 (SF-268): 11.8 µM
- IC50 (UACC-257): 16 µM
- IC50 (SF-539): 1.14 µM
- IC50 (SNU-387): 6.82 µM
- IC50 (M14): 4.93 µM
